Measurements reported in patent US20230045112A1, “DISULFIRAM AND OTHER REDOX-RELATED COMPOSITIONS FOR BRAIN TUMORS” (Texas Tech University System, priority 2014, published 2023).

Assays:
MGMT [1] = biological target: T1, MGMT (Homo sapiens, UniProt P16455); assay: MGMT activity and protein (western blot) in drug-treated T98G and UW228 brain tumor cells; format: cell-based; set-up: endogenous in cells; host or cells: UW228, T98G; settings: UW228 cells
T1 sequence (P16455 1-207): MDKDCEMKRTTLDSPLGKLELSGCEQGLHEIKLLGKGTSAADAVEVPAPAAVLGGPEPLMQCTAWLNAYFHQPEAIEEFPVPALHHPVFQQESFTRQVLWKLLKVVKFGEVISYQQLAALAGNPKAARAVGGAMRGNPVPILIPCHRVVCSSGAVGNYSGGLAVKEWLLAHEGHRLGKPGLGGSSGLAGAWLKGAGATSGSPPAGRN
Method: The DNA repair activity of MGMT was measured by the transfer of [3H]-labeled methyl groups from the O^6-position of guanine in the DNA substrate to the MGMT protein as described previously. The DNA substrate enriched in O6-methylguanine was prepared by reacting [3H]-methylnitrosourea (GE Healthcare, 60 Ci/mmol). Briefly, the cell pellets were washed with cold PBS, disrupted by sonication in the assay buffer (30 mM Tris-HCl pH 7.5, 0.5 mM DTT, 0.5 mM EDTA, 5% glycerol, and 20 μM spermidine) and centrifuged. The extracts (50-150 μg protein) were supplemented with the [3H]-DNA (10,000 cpm) and incubated at 37° C. The reactions were terminated by the addition of TCA, the DNA substrate was hydrolyzed at 80° C., and following filtration on glass fiber discs; the radioactivity present in protein precipitates was quantitated.
After trypsinization, the cell pellets were washed with cold PBS, and subjected to sonication in 50 mM Tris-HCl (pH 8.0) containing 1% glycerol, 1 mM EDTA, 0.5 mM PMSF and 2 mM benzamidine and centrifuged. Equal protein amounts from different treatments were electrophoresed on 12% SDS-polyacrylamide gels. Proteins were electro-transferred to Immobilon-P membranes. The membranes were blocked with 5% non-fat dry milk in Trisbuffered saline (TBS; pH 8.0) containing 0.1% Tween 20 for 3 hours, and subsequently incubated with appropriate primary antibodies. Antigen-antibody complexes were visualized by enhanced chemiluminiscence (Pierce Company). Band intensities were quantified using a Bio-Rad Versa Doc Imaging system.
Cells were trypsinized, washed and MGMT activity was determined in cell extracts (top panel). The same extracts were western blotted for MGMT protein. WB, western blot. […] Cells were exposed to CuDSF and analyzed for MGMT activity and protein as above. […] To delineate the appropriate time for alkylating drug treatments following MGMT inhibition, next, the time course of MGMT depletion by these three interventions was studied.
At times indicated, MGMT activity and protein levels were assessed.
MGMT performs a stoichiometric reaction to accomplish the DNA repair and is not recycled to its active form. Instead, the inactivated protein is degraded and fresh translation has to occur to restore the MGMT levels in cells. The rate and extent of this recovery is an important factor in the extent of damage introduced to the normal cell genomes such as the bone marrow stem cells. […] MGMT protein and activity levels were analyzed during the depletion and repletion (FIG. 3B).

MGMT [2] = biological target: T1, MGMT; set-up: endogenous in cells; host or cells: DAOY; settings: cultured tumor cells; cited from earlier work
MGMT [3] = biological target: T1, MGMT; assay: MGMT activity and protein in MGMT-proficient human cancer cell lines (HT29, T47D, HCT116); format: cell-based; set-up: endogenous in cells; host or cells: HT29, T47D, HCT116
cell lines = assay: Cytotoxicity of NO-aspirin for cell lines; format: cell-based

| SMILES | loss/inhibition of MGMT activity at 12 hours post-drug treatment (MGMT [1]; 50 μM, 12 hours) [%] | recovery of MGMT activity, % of control levels (MGMT [1]; 48 hours post-drug in drug-free media after 50 μM for 12 hours) | duration of suppression of DNA repair (MGMT [2]) [h] | MGMT protein degraded (MGMT [3]; 5 μM for 2 hours) | inhibition of MGMT activity (MGMT [3]; HT29, T47D, HCT116, 5-10 μM, within 1 hour of exposure) [%] | MGMT protein regenerated (MGMT [3]; HT29 cells, 24 hours post-incubation in drug-free medium) | IC50 (cell lines) [µM] |
| --- | --- | --- | --- | --- | --- | --- | --- |
| Nc1nc(OCc2ccccc2)c2nc[nH]c2n1 [BG, O^6-benzylguanine] | 100 | 25 % of control levels | 48 to 72 |  |  |  |  |
| CC(=O)Oc1ccccc1C(=O)Oc1cccc(CO[N+](=O)[O-])c1 [NCX-4016, 2-(acetyloxy) benzoic acid 3-[(nitrooxy)methyl]phenyl ester] |  |  |  | 80-90% | 90 | More than 60% | > 500 |
